Laboratory results reported in patent US20250339421A1, “METHODS FOR TREATING BILE DUCT CANCERS WITH TIVOZANIB” (The U.S.A., as represented by the Secretary, Department of …, priority 2021, published 2025).
Structures can show the parent of a compound that is named as a salt.

What was measured:
[1] = patients on Tivozanib; cited from earlier work
AKT S473 phosphorylation [2] = assay: AKT S473 phosphorylation in SNU-1079 cholangiocarcinoma cells; type: cell-based; conditions: SNU-1079 cell line, compared to control levels
WITT [3] = assay: proliferation of WITT cholangiocarcinoma cells; type: cell-based; conditions: WITT cell line; IC50 only in FIG. 3C-3E
VEGFR-3 = VEGFR-3 (Homo sapiens, UniProt P35916); conditions: at clinically relevant concentrations; cited from earlier work
Chain of VEGFR-3 (P35916 25-1363): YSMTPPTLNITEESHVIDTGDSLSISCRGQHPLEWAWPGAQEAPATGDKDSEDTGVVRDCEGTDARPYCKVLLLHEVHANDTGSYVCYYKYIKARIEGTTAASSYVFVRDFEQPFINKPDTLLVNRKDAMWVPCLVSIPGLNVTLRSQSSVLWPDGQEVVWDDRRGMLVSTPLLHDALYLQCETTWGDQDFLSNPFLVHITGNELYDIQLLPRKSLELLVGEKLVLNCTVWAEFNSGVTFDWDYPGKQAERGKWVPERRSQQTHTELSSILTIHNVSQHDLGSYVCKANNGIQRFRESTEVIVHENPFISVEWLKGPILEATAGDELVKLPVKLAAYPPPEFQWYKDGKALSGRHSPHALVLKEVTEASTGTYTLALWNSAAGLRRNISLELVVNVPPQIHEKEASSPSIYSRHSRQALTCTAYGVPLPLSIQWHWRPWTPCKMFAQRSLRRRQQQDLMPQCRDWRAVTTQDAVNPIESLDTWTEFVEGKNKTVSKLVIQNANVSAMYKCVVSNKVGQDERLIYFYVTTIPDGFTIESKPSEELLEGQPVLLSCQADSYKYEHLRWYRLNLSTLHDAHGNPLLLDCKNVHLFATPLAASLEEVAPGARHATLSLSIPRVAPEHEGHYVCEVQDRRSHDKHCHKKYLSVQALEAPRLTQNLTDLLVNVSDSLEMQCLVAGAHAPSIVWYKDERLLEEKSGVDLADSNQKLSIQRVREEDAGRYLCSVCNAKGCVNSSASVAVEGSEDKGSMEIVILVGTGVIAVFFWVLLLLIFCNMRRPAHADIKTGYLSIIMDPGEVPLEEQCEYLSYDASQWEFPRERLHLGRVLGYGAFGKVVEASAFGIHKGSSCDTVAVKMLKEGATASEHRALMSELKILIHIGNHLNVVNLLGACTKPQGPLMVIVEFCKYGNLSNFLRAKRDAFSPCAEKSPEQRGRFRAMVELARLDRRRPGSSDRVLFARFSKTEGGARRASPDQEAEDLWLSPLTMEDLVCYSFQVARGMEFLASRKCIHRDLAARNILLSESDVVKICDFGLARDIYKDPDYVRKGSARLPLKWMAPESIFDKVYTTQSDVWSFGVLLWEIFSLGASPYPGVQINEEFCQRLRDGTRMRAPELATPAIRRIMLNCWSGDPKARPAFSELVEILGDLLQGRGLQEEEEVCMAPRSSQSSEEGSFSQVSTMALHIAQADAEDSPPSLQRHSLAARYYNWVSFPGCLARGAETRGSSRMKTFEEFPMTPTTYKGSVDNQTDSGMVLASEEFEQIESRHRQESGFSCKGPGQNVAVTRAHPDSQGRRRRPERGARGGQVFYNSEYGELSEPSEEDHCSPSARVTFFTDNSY

c-kit = c-kit (Homo sapiens, UniProt P10721); conditions: at clinically relevant concentrations; cited from earlier work
Chain of c-kit (P10721 26-976): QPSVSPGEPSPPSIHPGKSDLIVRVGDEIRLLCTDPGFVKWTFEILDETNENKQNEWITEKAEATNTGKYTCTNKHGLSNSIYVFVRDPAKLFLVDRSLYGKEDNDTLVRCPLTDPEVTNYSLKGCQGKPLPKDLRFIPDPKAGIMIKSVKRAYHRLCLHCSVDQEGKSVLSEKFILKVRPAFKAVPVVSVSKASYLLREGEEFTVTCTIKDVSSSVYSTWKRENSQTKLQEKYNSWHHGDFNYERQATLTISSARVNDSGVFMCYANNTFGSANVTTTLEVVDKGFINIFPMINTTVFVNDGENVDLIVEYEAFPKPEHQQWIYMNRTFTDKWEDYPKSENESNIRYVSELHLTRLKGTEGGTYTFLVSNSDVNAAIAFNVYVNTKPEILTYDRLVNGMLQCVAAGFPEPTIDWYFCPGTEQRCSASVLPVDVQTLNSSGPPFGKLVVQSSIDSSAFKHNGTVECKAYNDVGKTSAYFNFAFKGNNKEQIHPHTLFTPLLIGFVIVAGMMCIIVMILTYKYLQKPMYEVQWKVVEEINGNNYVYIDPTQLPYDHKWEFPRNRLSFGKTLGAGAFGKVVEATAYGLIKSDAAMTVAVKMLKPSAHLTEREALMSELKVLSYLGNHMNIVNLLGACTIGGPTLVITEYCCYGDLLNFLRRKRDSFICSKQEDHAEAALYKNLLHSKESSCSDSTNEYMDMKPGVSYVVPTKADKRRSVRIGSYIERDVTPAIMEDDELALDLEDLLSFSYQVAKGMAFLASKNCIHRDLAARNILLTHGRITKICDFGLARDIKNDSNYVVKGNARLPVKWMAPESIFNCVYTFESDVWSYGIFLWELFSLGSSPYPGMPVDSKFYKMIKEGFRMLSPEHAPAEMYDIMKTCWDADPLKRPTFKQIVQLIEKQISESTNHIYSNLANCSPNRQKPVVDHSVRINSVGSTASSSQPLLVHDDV

AKT S473 phosphorylation [4] = assay: AKT S473 phosphorylation in EGI-1 cholangiocarcinoma cells; type: cell-based; conditions: EGI-1 cell line, compared to control levels
EGI-1 cell line = assay: subcutaneous xenograft model (EGI-1 cell line); type: in vivo, athymic nude mice
Description: FIG. 3G is a photograph of tumors obtained in a subcutaneous xenograft model using athymic nude mice (top row=vehicle treated; bottom row=20 mg/kg/day Tivozanib treatment for 28 days).
FIG. 3L provides a photograph of tumors obtained in an EGI-1 CCA cell line subcutaneous xenograft model following 28 days of treatment with vehicle or bevacizumab (top row=vehicle treated; bottom row=bevacizumab). Bevacizumab was provided at the standard murine dose. […] However, the reduction was not as dramatic as that seen with tivozanib alone (see FIG. 3H). As bevacizumab is an anti-VEGF antibody, the reduction seen in tumor volume provided by tivozanib cannot be attributed to its VEGF inhibitory properties alone; otherwise, a similar reduction would have been expected with bevacizumab.
To confirm that the tumoricidal effects of tivozanib were not due to its activity as a VEGF inhibitor, but could be attributed to action on SLK, the antitumor effects of bevacizumab, an anti-VEGF antibody, on EGI-1 cholangiocarcinoma xenografts were evaluated. […] If the decrease in tumor size with tivozanib was due solely to its activity as a VEGF inhibitor, bevacizumab should have produced similar results.

[5] = tested on: various tumor cell types including human renal cell carcinoma; conditions: tumor xenograft models in mice and rats; cited from earlier work
SNU-1070 = assay: tumor organoid assay, SNU-1070 (SNU-1079); type: cell-based; conditions: SNU-1070 as printed; tivozanib at 200 nM vs control
Description: (§1) Images of control are on the top row, whereas the effects of tivozanib at 200 nM are shown in the bottom row where the tumor organoids are smaller and fewer than in the control.

SNU-1079 = assay: proliferation of SNU-1079 cholangiocarcinoma cells; type: cell-based; conditions: SNU-1079 cell line; IC50 only in FIG. 3C-3E
[6] = tested on: liver metastasis from a patient with XPO7-expressing cholangiocarcinoma; assay: ex vivo tumor SMART platform, H&E and Ki67 staining; type: cell-based, human
Description: Finally, tivozanib was evaluated in the ex vivo tumor SMART platform described in International Patent Application No. WO2021/183527 which is incorporated by reference herein for all purposes. A liver metastasis from a patient with XPO7-expressing cholangiocarcinoma was evaluated using H&E staining and Ki67 staining to contrast treatment with control versus tivozanib.

SLK = SLK (Homo sapiens, UniProt Q9H2G2); assay: kinome inhibition screen; conditions: FIG. 3A
Chain of SLK (Q9H2G2 whole entry): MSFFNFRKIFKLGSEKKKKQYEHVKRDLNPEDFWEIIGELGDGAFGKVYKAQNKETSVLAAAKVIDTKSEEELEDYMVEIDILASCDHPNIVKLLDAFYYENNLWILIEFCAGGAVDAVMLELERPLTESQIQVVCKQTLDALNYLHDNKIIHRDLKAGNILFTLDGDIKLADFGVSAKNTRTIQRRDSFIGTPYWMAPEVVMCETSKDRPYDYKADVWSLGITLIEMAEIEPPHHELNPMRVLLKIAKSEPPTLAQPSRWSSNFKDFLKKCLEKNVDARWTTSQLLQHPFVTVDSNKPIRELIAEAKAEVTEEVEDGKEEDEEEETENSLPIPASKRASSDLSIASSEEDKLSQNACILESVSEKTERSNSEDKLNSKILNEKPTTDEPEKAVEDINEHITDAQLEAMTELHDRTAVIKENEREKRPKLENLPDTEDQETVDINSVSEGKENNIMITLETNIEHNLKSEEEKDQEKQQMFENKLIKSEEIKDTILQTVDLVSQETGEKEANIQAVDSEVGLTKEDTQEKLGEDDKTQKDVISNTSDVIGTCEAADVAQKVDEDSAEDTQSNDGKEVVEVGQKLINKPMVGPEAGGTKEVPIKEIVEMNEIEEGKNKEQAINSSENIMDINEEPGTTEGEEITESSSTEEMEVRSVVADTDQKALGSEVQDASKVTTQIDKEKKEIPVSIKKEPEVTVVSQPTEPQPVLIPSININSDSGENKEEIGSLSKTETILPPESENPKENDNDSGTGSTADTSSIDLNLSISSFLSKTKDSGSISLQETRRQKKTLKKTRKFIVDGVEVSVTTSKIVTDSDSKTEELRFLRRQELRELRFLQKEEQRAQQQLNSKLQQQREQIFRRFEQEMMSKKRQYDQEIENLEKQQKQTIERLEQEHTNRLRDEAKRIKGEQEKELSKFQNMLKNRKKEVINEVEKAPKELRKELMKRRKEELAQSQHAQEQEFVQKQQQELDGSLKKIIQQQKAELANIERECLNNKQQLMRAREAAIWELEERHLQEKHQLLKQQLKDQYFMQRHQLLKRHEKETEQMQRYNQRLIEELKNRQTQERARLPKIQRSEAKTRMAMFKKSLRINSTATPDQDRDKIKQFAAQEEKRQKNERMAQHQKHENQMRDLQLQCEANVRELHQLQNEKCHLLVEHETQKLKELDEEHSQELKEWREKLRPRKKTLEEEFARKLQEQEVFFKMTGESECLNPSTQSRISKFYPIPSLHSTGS

WITT [7] = assay: tumor organoid assay, WITT; type: cell-based; conditions: tivozanib at 200 nM vs control
Description: as §1

AKT S473 phosphorylation [8] = assay: AKT S473 phosphorylation in WITT cholangiocarcinoma cells; type: cell-based; conditions: WITT cell line, compared to control levels
EGI-1 [9] = assay: proliferation of EGI-1 cholangiocarcinoma cells; type: cell-based; conditions: EGI-1 cell line; IC50 only in FIG. 3C-3E
PDGFR β = PDGFR β (Homo sapiens, UniProt P09619); conditions: at clinically relevant concentrations; cited from earlier work
Chain of PDGFR β (P09619 33-1106): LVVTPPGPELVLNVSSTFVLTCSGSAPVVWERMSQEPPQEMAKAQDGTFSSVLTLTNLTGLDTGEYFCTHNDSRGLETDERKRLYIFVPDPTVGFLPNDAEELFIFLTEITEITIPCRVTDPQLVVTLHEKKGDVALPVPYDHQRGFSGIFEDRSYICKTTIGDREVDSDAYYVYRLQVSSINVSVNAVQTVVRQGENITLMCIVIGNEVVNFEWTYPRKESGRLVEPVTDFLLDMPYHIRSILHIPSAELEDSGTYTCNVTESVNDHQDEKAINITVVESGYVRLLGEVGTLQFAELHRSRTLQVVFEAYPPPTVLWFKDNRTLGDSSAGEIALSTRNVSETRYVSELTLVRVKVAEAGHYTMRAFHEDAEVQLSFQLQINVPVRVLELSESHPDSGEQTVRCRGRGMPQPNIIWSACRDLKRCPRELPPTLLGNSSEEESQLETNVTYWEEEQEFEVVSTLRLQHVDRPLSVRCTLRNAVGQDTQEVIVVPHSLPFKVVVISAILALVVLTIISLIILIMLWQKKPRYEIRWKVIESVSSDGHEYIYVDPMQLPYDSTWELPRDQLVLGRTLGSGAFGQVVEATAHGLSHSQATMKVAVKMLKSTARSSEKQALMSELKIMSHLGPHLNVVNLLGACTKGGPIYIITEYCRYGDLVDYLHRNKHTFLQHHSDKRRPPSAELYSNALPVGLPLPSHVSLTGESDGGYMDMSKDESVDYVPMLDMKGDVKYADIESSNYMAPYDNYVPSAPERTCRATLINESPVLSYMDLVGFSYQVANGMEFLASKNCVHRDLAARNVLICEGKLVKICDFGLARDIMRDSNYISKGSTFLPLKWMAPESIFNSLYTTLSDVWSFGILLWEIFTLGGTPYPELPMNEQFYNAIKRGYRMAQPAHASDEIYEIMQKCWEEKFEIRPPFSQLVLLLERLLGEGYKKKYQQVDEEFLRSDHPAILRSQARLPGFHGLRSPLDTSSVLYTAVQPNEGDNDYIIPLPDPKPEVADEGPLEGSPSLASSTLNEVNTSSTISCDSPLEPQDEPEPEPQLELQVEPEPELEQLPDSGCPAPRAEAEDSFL

EGI-1 [10] = assay: tumor organoid assay, EGI-1; type: cell-based; conditions: tivozanib at 200 nM vs control
Description: as §1

[11] = cited from earlier work

Molecule: COc1cc2nccc(Oc3ccc(NC(=O)Nc4cc(C)on4)c(Cl)c3)c2cc1OC [tivozanib, N-{2-chloro-4-[(6,7-dimethoxy-4-quinolyl)oxy]-phenyl}-N′-(5-methyl-3-isoxazolyl) urea]
- incidence of hypertension [1]: high incidence
- AKT S473 phosphorylation (AKT S473 phosphorylation [2]): inhibited AKT S473 phosphorylation
- proliferation (WITT [3]): inhibited proliferation
- phosphorylation of VEGFR-3 (VEGFR-3): inhibits phosphorylation
- inhibition of c-kit (c-kit): inhibits
- AKT S473 phosphorylation (AKT S473 phosphorylation [4]): inhibited AKT S473 phosphorylation
- tumor growth in vivo (EGI-1 cell line; EGI-1 subcutaneous xenograft): inhibited tumor growth
- final tumor volume vs control vehicle (EGI-1 cell line; tivozanib 20 mg/kg/day for 28 days, p value of <0.001): statistically significantly smaller in volume
- change in tumor volume over the course of treatment (EGI-1 cell line; waterfall plot FIG. 3I, compared to control): substantial change in tumor volume
- angiogenesis [5]: inhibited
- tumor growth [5]: inhibited
- tumor organoid formation (SNU-1070): abrogated tumor formation
- proliferation (SNU-1079): inhibited proliferation
- cell degeneration ([6]; 0.2 μg/mL tivozanib): statistically significant increased cell degeneration
- viable cells compared to control ([6]; 0.2 μg/mL tivozanib): fewer viable cells
- cell degeneration ([6]; 1 μg/mL tivozanib): statistically significant increased cell degeneration
- viable cells compared to control ([6]; 1 μg/mL tivozanib): fewer viable cells
- Ki67 staining (dark stained nuclei) ([6]; day 4, vs control tissue (0 μg/mL tivozanib)): reduction in dark stained nuclei
- cell death ([6]; higher dose level (1 μg/mL tivozanib)): statistically significant levels of cell death
- inhibition of SLK (SLK): potent inhibitor of SLK
- tumor organoid formation (WITT [7]): abrogated tumor formation
- AKT S473 phosphorylation (AKT S473 phosphorylation [8]): inhibited AKT S473 phosphorylation
- proliferation (EGI-1 [9]): inhibited proliferation
- inhibition of PDGFR β (PDGFR β): inhibits
- tumor organoid formation (EGI-1 [10]): abrogated tumor formation

Molecule: COc1cc2nccc(Oc3ccc(NC(=O)Nc4cc(C)on4)c(Cl)c3)c2cc1OC [Tivozanib hydrochloride, 1-{2-chloro-4-[(6,7-dimethoxyquinolin-4-yl)oxy]phenyl}-3-(5-methylisoxazol-3-yl) urea hydrochloride hydrate]
- solubility in water [11]: practically insoluble in water

Molecule: bevacizumab: an anti-VEGF antibody
- average tumor volume vs control group (EGI-1 cell line; bevacizumab, standard murine dose, 28 days of treatment): statistically significantly smaller
